Test results reported in patent US20240270715A1, “INHIBITORS OF TRANSGLUTAMINASES” (ZEDIRA GMBH, priority 2021, published 2024).

Tests used:
[1] = Log D by shake flask method (octanol / PBS pH 7.4, HPLC); type: physicochemical; conditions: octanol / PBS pH 7.4, shake flask; read-out: logD
Procedure, shortened: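 Log D is derived by HPLC measurement of how the compound distributes between octanol and pH 7.4 phosphate-buffered saline in a shake flask.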

[2] = molecular target: T1, recombinant human transglutaminase 2 (Homo sapiens, UniProt P21980); assay: Transglutaminase assay: incorporation of dansylcadaverine into dimethylcasein (DCC-assay); type: biochemical; conditions: recombinant human TG2 10 nM, dansylcadaverine/dimethylcasein; read-out: IC50 TG2
T1 sequence (P21980 1-687): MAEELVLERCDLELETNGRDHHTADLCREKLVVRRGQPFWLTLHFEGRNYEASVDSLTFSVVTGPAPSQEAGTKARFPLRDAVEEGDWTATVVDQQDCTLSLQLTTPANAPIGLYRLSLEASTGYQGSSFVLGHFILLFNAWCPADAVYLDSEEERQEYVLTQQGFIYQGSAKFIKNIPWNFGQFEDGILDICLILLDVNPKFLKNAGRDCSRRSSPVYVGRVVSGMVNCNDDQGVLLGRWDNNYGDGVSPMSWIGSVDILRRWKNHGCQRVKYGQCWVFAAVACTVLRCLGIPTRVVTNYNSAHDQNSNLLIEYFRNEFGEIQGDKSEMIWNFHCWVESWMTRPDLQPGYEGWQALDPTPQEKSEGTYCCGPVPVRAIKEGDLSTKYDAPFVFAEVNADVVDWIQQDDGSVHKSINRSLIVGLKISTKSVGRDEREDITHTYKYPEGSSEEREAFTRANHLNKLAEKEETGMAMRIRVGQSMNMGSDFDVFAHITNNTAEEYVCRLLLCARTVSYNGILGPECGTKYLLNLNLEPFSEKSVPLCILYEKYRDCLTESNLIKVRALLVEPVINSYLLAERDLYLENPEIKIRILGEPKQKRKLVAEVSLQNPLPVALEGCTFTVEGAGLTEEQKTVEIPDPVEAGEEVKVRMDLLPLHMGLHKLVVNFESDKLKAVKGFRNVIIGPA
Procedure, shortened: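 Recombinant human TG2 (10 nM final) incorporates dansylcadaverine (16.7 μM) into N,N-dimethylcasein (4 μM) in Tris-HCl buffer, pH 8.0, with 10 mM CaCl2 and 10 mM glutathione. Fluorescence (λex 330, λem 500 nm) followed 30 min. The slope between 20–30 min gives activity versus DMSO control, and IC50 comes from the concentration–activity plot.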

[3] = Caco-2 permeability assay (CacoReady kit); type: in vitro ADME; conditions: human
Procedure, shortened: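 Compounds are tested on pre-formed Caco-2 barriers supplied as a ready-to-use kit, following the kit protocol, and the Papp value is derived to estimate intestinal absorption.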

SMILES | logD [1] | IC50 [2] [µM] | Papp [3] [×10⁻⁶ cm/s]
CCNC(=O)C(=O)CC[C@H](NC(=O)c1[nH]c2ccccc2c1C)C(=O)Nc1cccn(CC(=O)NC2C3CC4CC(C3)CC2C4)c1=O (stereo partly drawn) [Compound I-37, (S)-N1-ethyl-N6-(1-(2-(2-adamantylamino)-2-oxoethyl)-2-oxo-1,2-dihydropyridin-3-yl)-5-(3-methyl-1H-indole-2-carboxamido)-2-oxohexanediamide] | 3 to 5 | < 0.15 | 1 to 10
CCNC(=O)C(=O)CC[C@H](NC(=O)c1nc2ccccc2[nH]1)C(=O)Nc1cccn(CC(=O)NC2C3CC4CC(C3)CC2C4)c1=O (stereo partly drawn) [Compound I-38, (S)-2-(1H-benzo[d]imidazole-2-carboxamido)-N6-ethyl-N1-(1-(2-(2-adamantylamino)-2-oxoethyl)-2-oxo-1,2-dihydropyridin-3-yl)-5-oxohexanediamide] | 3 to 5 | < 0.15 | < 1
CCNC(=O)C(=O)CC[C@H](NC(=O)C1Cc2ccccc2C1)C(=O)Nc1cccn(CC(=O)NC2C3CC4CC(C3)CC2C4)c1=O (stereo partly drawn) [Compound I-39, (S)-2-(2,3-dihydro-1H-indene-2-carboxamido)-N6-ethyl-N1-(1-(2-(2-adamantylamino)-2-oxoethyl)-2-oxo-1,2-dihydropyridin-3-yl)-5-oxohexanediamide] | 3 to 5 | < 0.15 | 1 to 10
CCNC(=O)C(=O)CC[C@H](NC(=O)c1sc(C(F)(F)F)nc1C)C(=O)Nc1cccn(CC(=O)NC2C3CC4CC(C3)CC2C4)c1=O (stereo partly drawn) [Compound I-40, (S)-N1-ethyl-N6-(1-(2-(2-adamantylamino)-2-oxoethyl)-2-oxo-1,2-dihydropyridin-3-yl)-5-(4-methyl-2-(trifluoromethyl)thiazole-5-carboxamido)-2-oxohexanediamide] | 1 to 3 | < 0.15 | 1 to 10
CCNC(=O)C(=O)CC[C@H](NC(=O)c1sc(C(F)(F)F)nc1Br)C(=O)Nc1cccn(CC(=O)NC2C3CC4CC(C3)CC2C4)c1=O (stereo partly drawn) [Compound I-41, (S)-2-(4-bromo-2-(trifluoromethyl)thiazole-5-carboxamido)-N6-ethyl-N1-(1-(2-(2-adamantylamino)-2-oxoethyl)-2-oxo-1,2-dihydropyridin-3-yl)-5-oxohexanediamide] | 1 to 3 | < 0.15 | 1 to 10
CCNC(=O)C(=O)CC[C@H](NC(=O)c1sc(-c2ccccc2)nc1C)C(=O)Nc1cccn(CC(=O)NC2C3CC4CC(C3)CC2C4)c1=O (stereo partly drawn) [Compound I-42, (S)-N1-ethyl-N6-(1-(2-(2-adamantylamino)-2-oxoethyl)-2-oxo-1,2-dihydropyridin-3-yl)-5-(4-methyl-2-phenylthiazole-5-carboxamido)-2-oxohexanediamide] | 3 to 5 | 0.15 to 0.6 | 1 to 10
CCNC(=O)C(=O)CC[C@H](NC(=O)c1cc(Br)cs1)C(=O)Nc1cccn(CC(=O)NC2C3CC4CC(C3)CC2C4)c1=O (stereo partly drawn) [Compound I-51, (S)-2-(4-bromothiophene-2-carboxamido)-N6-ethyl-N1-(1-(2-(2-adamantylamino)-2-oxoethyl)-2-oxo-1,2-dihydropyridin-3-yl)-5-oxohexanediamide] | 3 to 5 | < 0.15 | 1 to 10
CCNC(=O)C(=O)CC[C@H](NC(=O)[C@@H]1CCCN1C(C)=O)C(=O)Nc1cccn(CC(=O)NC2C3CC4CC(C3)CC2C4)c1=O (stereo partly drawn) [Compound I-55, (S)-2-((S)-1-acetylpyrrolidine-2-carboxamido)-N6-ethyl-N1-(1-(2-(2-adamantylamino)-2-oxoethyl)-2-oxo-1,2-dihydropyridin-3-yl)-5-oxohexanediamide] | 1 to 3 | 0.15 to 0.6 | < 1

Continued, values first:

logD [1] | IC50 [2] [µM] | Papp [3] [×10⁻⁶ cm/s] | SMILES
3 to 5 | < 0.15 | 1 to 10 | CCNC(=O)C(=O)CC[C@H](NC(=O)c1sc(Br)cc1C)C(=O)Nc1cccn(CC(=O)NC2C3CC4CC(C3)CC2C4)c1=O (stereo partly drawn) [Compound I-43, (S)-2-(5-bromo-3-methylthiophene-2-carboxamido)-N6-ethyl-N1-(1-(2-(2-adamantylamino)-2-oxoethyl)-2-oxo-1,2-dihydropyridin-3-yl)-5-oxohexanediamide]
3 to 5 | < 0.15 | 1 to 10 | CCNC(=O)C(=O)CC[C@H](NC(=O)c1sc(Br)cc1Br)C(=O)Nc1cccn(CC(=O)NC2C3CC4CC(C3)CC2C4)c1=O (stereo partly drawn) [Compound I-44, (S)-2-(3,5-dibromothiophene-2-carboxamido)-N6-ethyl-N1-(1-(2-(2-adamantylamino)-2-oxoethyl)-2-oxo-1,2-dihydropyridin-3-yl)-5-oxohexanediamide]
3 to 5 | < 0.15 | 1 to 10 | CCNC(=O)C(=O)CC[C@H](NC(=O)c1oc(Br)cc1C)C(=O)Nc1cccn(CC(=O)NC2C3CC4CC(C3)CC2C4)c1=O (stereo partly drawn) [Compound I-45, (S)-2-(5-bromo-3-methylfuran-2-carboxamido)-N6-ethyl-N1-(1-(2-(2-adamantylamino)-2-oxoethyl)-2-oxo-1,2-dihydropyridin-3-yl)-5-oxohexanediamide]
3 to 5 | < 0.15 | 1 to 10 | CCNC(=O)C(=O)CC[C@H](NC(=O)c1cc(Cl)sc1Cl)C(=O)Nc1cccn(CC(=O)NC2C3CC4CC(C3)CC2C4)c1=O (stereo partly drawn) [Compound I-46, (S)-2-(2,5-dichlorothiophene-3-carboxamido)-N6-ethyl-N1-(1-(2-(2-adamantylamino)-2-oxoethyl)-2-oxo-1,2-dihydropyridin-3-yl)-5-oxohexanediamide]
3 to 5 | < 0.15 | 1 to 10 | CCNC(=O)C(=O)CC[C@H](NC(=O)c1cc(Br)sc1Br)C(=O)Nc1cccn(CC(=O)NC2C3CC4CC(C3)CC2C4)c1=O (stereo partly drawn) [Compound I-47, (S)-2-(2,5-dibromothiophene-3-carboxamido)-N6-ethyl-N1-(1-(2-(2-adamantylamino)-2-oxoethyl)-2-oxo-1,2-dihydropyridin-3-yl)-5-oxohexanediamide]
1 to 3 | 0.15 to 0.6 | 1 to 10 | CCNC(=O)C(=O)CC[C@H](NC(=O)c1nc(Cl)sc1Cl)C(=O)Nc1cccn(CC(=O)NC2C3CC4CC(C3)CC2C4)c1=O (stereo partly drawn) [Compound I-48, (S)-2-(2,5-dichlorothiazole-4-carboxamido)-N6-ethyl-N1-(1-(2-(2-adamantylamino)-2-oxoethyl)-2-oxo-1,2-dihydropyridin-3-yl)-5-oxohexanediamide]
1 to 3 | < 0.15 | 1 to 10 | CCNC(=O)C(=O)CC[C@H](NC(=O)c1cc(C)oc1C)C(=O)Nc1cccn(CC(=O)NC2C3CC4CC(C3)CC2C4)c1=O (stereo partly drawn) [Compound I-49, (S)-2-(2,5-dimethylfuran-3-carboxamido)-N6-ethyl-N1-(1-(2-(2-adamantylamino)-2-oxoethyl)-2-oxo-1,2-dihydropyridin-3-yl)-5-oxohexanediamide]
3 to 5 | < 0.15 | 1 to 10 | CCNC(=O)C(=O)CC[C@H](NC(=O)c1nc(Br)cs1)C(=O)Nc1cccn(CC(=O)NC2C3CC4CC(C3)CC2C4)c1=O (stereo partly drawn) [Compound I-50, (S)-2-(4-bromothiazole-2-carboxamido)-N6-ethyl-N1-(1-(2-(2-adamantylamino)-2-oxoethyl)-2-oxo-1,2-dihydropyridin-3-yl)-5-oxohexanediamide]
3 to 5 | < 0.15 | 1 to 10 | CCNC(=O)C(=O)CC[C@H](NC(=O)c1cc(Br)c(Cl)s1)C(=O)Nc1cccn(CC(=O)NC2C3CC4CC(C3)CC2C4)c1=O (stereo partly drawn) [Compound I-52, (S)-2-(4-bromo-5-chlorothiophene-2-carboxamido)-N6-ethyl-N1-(1-(2-(2-adamantylamino)-2-oxoethyl)-2-oxo-1,2-dihydropyridin-3-yl)-5-oxohexanediamide]
3 to 5 | < 0.15 | 1 to 10 | CCNC(=O)C(=O)CC[C@H](NC(=O)c1cc(Br)c(Br)s1)C(=O)Nc1cccn(CC(=O)NC2C3CC4CC(C3)CC2C4)c1=O (stereo partly drawn) [Compound I-53, (S)-2-(4,5-dibromothiophene-2-carboxamido)-N6-ethyl-N1-(1-(2-(2-adamantylamino)-2-oxoethyl)-2-oxo-1,2-dihydropyridin-3-yl)-5-oxohexanediamide]
3 to 5 | < 0.15 | 1 to 10 | CCNC(=O)C(=O)CC[C@H](NC(=O)c1cc(Cl)c(Cl)s1)C(=O)Nc1cccn(CC(=O)NC2C3CC4CC(C3)CC2C4)c1=O (stereo partly drawn) [Compound I-54, (S)-2-(4,5-dichlorothiophene-2-carboxamido)-N6-ethyl-N1-(1-(2-(2-adamantylamino)-2-oxoethyl)-2-oxo-1,2-dihydropyridin-3-yl)-5-oxohexanediamide]
